# Results as given in PubChem BioAssay (NCI).
# “And” between values parts separate entries of the source, which are not always exact repeats. Identical values can stand only once.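 Method: 48-hour compound exposure of cells in 96-well plates, five concentrations, linear interpolation of endpoints. Abbreviation: GI50, concentration required for 50% inhibition of growth. Definition used: TGI = concentration required for complete inhibition of growth.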
# How the values were obtained:
# Test in all cases: NCI anticancer screen, dose series, 48 h
# HCC-2998 colon = tested on: HCC-2998 colon
# SNB-19 CNS = tested on: SNB-19 CNS
# A549 NSCLC = tested on: A549 NSCLC
# BT-549 breast = tested on: BT-549 breast
# NCI-H226 lung = tested on: NCI-H226 lung
# HT29 colon = tested on: HT29 colon
# RXF 393 renal = tested on: RXF 393 renal
# NCI-H522 lung = tested on: NCI-H522 lung
# T-47D breast = tested on: T-47D breast
# SK-MEL-5 melanoma = tested on: SK-MEL-5 melanoma
Compound,GI50 (HCC-2998 colon),TGI (HCC-2998 colon),GI50 (SNB-19 CNS),TGI (SNB-19 CNS),GI50 (A549 NSCLC),TGI (A549 NSCLC),GI50 (BT-549 breast),TGI (BT-549 breast),GI50 (NCI-H226 lung),TGI (NCI-H226 lung),GI50 (HT29 colon),TGI (HT29 colon),GI50 (RXF 393 renal),TGI (RXF 393 renal),GI50 (NCI-H522 lung),TGI (NCI-H522 lung),GI50 (T-47D breast),TGI (T-47D breast),GI50 (SK-MEL-5 melanoma),TGI (SK-MEL-5 melanoma)
CC(C)=C[C@@H]1C[C@H](C)[C@H]2CC[C@H](C)c3c(O)c(OC4OC(C)C(O)C(O)C4O)c(C)c1c32 (some centres not stated),0.734 µM,3.97 µM,15.7 µM,29.2 µM,11.9 µM,24.2 µM,18.9 µM,34.8 µM,17.3 µM,33.1 µM,4.07 µM,15.6 µM,11 µM,23.2 µM,16.1 µM,29.8 µM,12.5 µM,26.5 µM,12 µM,24.7 µM
COc1cc(-c2nc(-c3ccccc3)c(-c3ccccc3)[nH]2)cc(OC)c1O,17.1 µM,32.7 µM,20.8 µM,52.9 µM,19 µM,57 µM,19.5 µM,39.5 µM,21.2 µM,50 µM,17.4 µM,35.6 µM,14.7 µM,31.2 µM,17.6 µM,33.8 µM,13.5 µM,38.7 µM,14.2 µM,27.6 µM
CCSC[C@@H]1C[C@](O)(c2ccccc2)[C@@H](c2ccccc2)O1,> 100 µM,> 100 µM,> 100 µM,> 100 µM,82.9 µM,> 100 µM,89.1 µM,> 100 µM,> 77.1 µM,> 100 µM,69.6 µM,> 100 µM,76.2 µM,> 100 µM,58.4 µM,> 100 µM,49 µM,> 100 µM,44.4 µM,> 100 µM
CCn1cc(C(=O)O)c(=O)c2cc(F)c(N3CCN(S(=O)(=O)c4ccc(Cl)cc4Cl)CC3)cc21,2.29 µM,5.17 µM,3.07 µM,20.6 µM,2.89 µM,> 100 µM,2.64 µM,7.89 µM,2.6 µM,7.88 µM,3.63 µM,> 100 µM,2.08 µM,5.68 µM,1.81 µM,3.73 µM,3.11 µM,9.71 µM,1.87 µM,3.93 µM
Clc1ccc(C=Nc2ccc(-c3nc4ccccc4[nH]3)cc2)cc1,> 100 µM,> 100 µM,55.6 µM,> 100 µM,> 100 µM,> 100 µM,> 100 µM,> 100 µM,> 100 µM,> 100 µM,> 100 µM,> 100 µM,> 100 µM,> 100 µM,> 100 µM,> 100 µM,55.1 µM,> 100 µM,45 µM,> 100 µM
O=C1CCC(c2ccccc2)=NN1c1nc2ccccc2s1,,> 61 µM,,> 100 µM,,> 100 µM,,82.5 µM,,> 100 µM,,> 100 µM,,34.1 µM,,59 µM,,32.7 µM,,53.1 µM
O=S(=O)(c1ccccc1)N1CCCC(c2ccccc2)CC1 (configuration not stated),,61.3 µM,,> 100 µM,,> 100 µM,,> 100 µM,,> 100 µM,,42 µM,,> 100 µM,,> 100 µM,,> 100 µM,,28.9 µM
CCN(CC)c1ccc(/C=N/NC(=O)Cc2ccc(Nc3ccnc(C(F)(F)F)c3)cc2)c(O)c1,1.17 µM,> 100 µM,0.588 µM,> 26.6 µM,1.19 µM,> 100 µM,0.965 µM,> 29.2 µM,0.699 µM,> 23.5 µM,0.638 µM,> 68.2 µM,1.03 µM,98.5 µM,1.27 µM,> 100 µM,0.517 µM,> 25.1 µM,0.49 µM,3.86 µM
Cn1cc(-c2cc(-c3cn(C)c4ccccc34)[nH]n2)c2ccccc21,4.74 µM,> 100 µM,27 µM,> 100 µM,16.3 µM,> 100 µM,15.9 µM,61.7 µM,19.8 µM,99 µM,5.35 µM,> 100 µM,14.7 µM,38.7 µM,22.1 µM,> 100 µM,79.7 µM,> 100 µM,13.1 µM,> 100 µM
COC(=O)[C@@]12OC[C@]34[C@H]([C@@H](O)[C@@H]1O)[C@@]1(C)CC(=O)C(O)=C(C)[C@@H]1C[C@H]3OC(=O)[C@H](OC(=O)/C=C(\C)C(C)C)[C@@H]24,,0.00342 µM,0.00464 µM,0.0214 µM and 0.145 µM,,0.0168 µM and < 0.0163 µM and 0.0473 µM,0.0262 µM,0.06 µM and 0.0156 µM and 0.0214 µM,,0.00771 µM and 0.0236 µM,,0.0161 µM and 0.0718 µM,,0.0303 µM and 0.0297 µM,,0.00723 µM,,0.0581 µM,,0.00333 µM and 0.0278 µM
